Here are results for 19 compounds from patent US5220050A, “Peptide mimetic compounds useful as platelet aggregation inhibitors” (G. D. Searle & Co., priority 1991, dated 1993).

In test [1] the test system is collagen induced platelet aggregation. In words: Inhibition of ex vivo collagen induced aggregation after administration to dogs. Type of test: in vivo, dogs (Beagles). The conditions noted are these: dog, intragastric or intravenous; for inhibition in vivo at 20 mg/kg / inhibition in vivo at 30 mg/kg / inhibition in vivo at 10 mg/kg: Canis lupus familiaris, Platelet, read-out: Max % Inhibition. Here is the method:
The purpose of this assay is to determine the effects of antiplatelet compounds on ex vivo collagen induced platelet aggregation when administered either intravenously or orally to dogs.
Pretreatment (control) blood samples are drawn from either conscious or anesthetized dogs (Beagles) and centrifuged to prepare platelet rich plasma (PRP). Aggregatory response to collagen is measured in an aggregometer and used as Control.
In Table B the designation "NT" means "Not Tested". Also in Table B, two readings given in a single box indicate that two trials, rather than a single trial, were run for that particular compound in that particular assay.

Test [2] deals with Platelet Aggregation in Dog PRP. In words: In-Vitro Platelet Aggregation in PRP (ADP induced). Type of test: cell-based. The conditions noted are these: Canis lupus familiaris, Platelet, in-vitro. Here is the method:
Healthy male or female dogs were fasted for 8 hours prior to drawing blood; then 30 ml whole blood was collected using a butterfly needle and 30 cc plastic syringe with 3 ml of 0.129 M buffered sodium citrate (3.8%). The syringe was rotated carefully as blood was drawn to mix the citrate. Platelet-rich plasma (PRP) was prepared by centrifugation at 975×g for 3.17 minutes at room temperature, allowing the centrifuge to coast to a stop without braking. The PRP was removed from the blood with a plastic pipette and placed in a plastic capped, 50 ml Corning conical sterile centrifuge tube which was held at room temperature. Platelet poor plasma (PPP) was prepared by centrifuging the remaining blood at 2000×g for 15 minutes at room temperature allowing the centrifuge to coast to a stop without braking. The PRP was adjusted with PPP to a count of 2-3×10^8 platelets per ml. 400 μl of the PRP preparation and 50 μl of the compound to be tested or saline were preincubated for 1 minute at 37° C. in a BioData aggregometer (BioData, Horsham, Pa.). 50 μl of adenosine 5'diphosphate (ADP) (50 μm final concentration) was added to the cuvettes and the aggregation was monitored for 1 minute. All compounds are tested in duplicate. Results are calculated as follows:
Percent of control=[(maximal OD minus initial OD of compound) divided by (maximal OD minus initial OD of control saline)]×100. The % inhibition=100-(percent of control).

One may read the IC50 as the midpoint of a concentration-inhibition curve. High values mean lower potency, low ones higher potency.

Where a name gives a salt, the structure may show the parent alone.

On to `CCOC(=O)CC(NC(=O)CCCCc1ccc(C(=N)N)cc1)c1cc(OC)cc(OC)c1` (stereo not drawn) [ethyl β-[[5-[4-(aminoiminomethyl)phenyl]-1-oxopentyl]amino]-3,5-dimethoxybenzenepropanoate], for which, in test [1] (dose 20 mg/Kg), the inhibition in vivo at 20 mg/kg was 70% and the Duration was determined as 4 h.

As to `C=CC(CC(=O)OCC)NC(=O)CCCCc1ccc(C(=N)N)cc1` (centres unmarked) [ethyl 3-[[5-[4-(aminoiminomethyl)phenyl]-1-oxopentyl]amino]-4-pentenoate], in test [1] (dose 30 mg/Kg), the inhibition in vivo at 30 mg/kg came out at 100%.

As to `CCOC(=O)CC(Cc1ccccc1)NC(=O)CCCCc1ccc(C(=N)N)cc1` (stereo not drawn) [ethyl β-[[5-[4-(aminoiminomethyl)phenyl]-1-oxopentyl]amino]benzenebutanoate], in test [1] (dose 20 mg/Kg), the inhibition in vivo at 20 mg/kg was found to be 30% and the Duration worked out at 1.5 h.

Take `CCOC(=O)CC(NC(=O)CCCCc1ccc(C(=N)N)cc1)c1ccc(-c2ccccc2)cc1` (stereo not drawn) [ethyl β-[[5-[4-(aminoiminomethyl)phenyl]-1-oxopentyl]amino][1,1'-biphenyl]-4-propanoate]: in test [1] (dose 30 mg/Kg), the inhibition in vivo at 30 mg/kg is 0%.

Consider `CCOC(=O)CC(NC(=O)CCCCc1ccc(C(=N)N)cc1)c1ccc2c(c1)OCO2` (stereo not drawn) [ethyl β-[[5-[4-(aminoiminomethyl)phenyl]-1-oxopentyl]amino]-1,3-benzodioxole-5-propanoate], for which, in test [1] (dose 10 mg/Kg), the inhibition in vivo at 10 mg/kg turned out to be 100% and the Duration is 5 h.

On to `CCOC(=O)CC(NC(=O)CCCCc1ccc(C(=N)N)cc1)c1cccnc1` (stereo not drawn) [ethyl β-[[5-[4-(aminoiminomethyl)phenyl]-1-oxopentyl]amino]-3-pyridinepropanoate], for which, in test [1] (dose 10 mg/Kg), the inhibition in vivo at 10 mg/kg turned out to be 100%. Also, in test [1] (dose 20 mg/Kg), the inhibition in vivo at 20 mg/kg stood at 100% and the Duration is over 24 h.

Turning to `CCOC(=O)CC(CC(C)C)NC(=O)CCCCc1ccc(C(=N)N)cc1` (centres unmarked) [ethyl 3-[[5-[4-(aminoiminomethyl)phenyl]-1-oxopentyl]amino]-5-methylhexanoate], in test [1] (dose 30 mg/Kg), the inhibition in vivo at 30 mg/kg came out at 100% and the Duration is over 6 h.

Regarding `CCOC(=O)CC(CCc1ccccc1)NC(=O)CCCCc1ccc(C(=N)N)cc1` (stereo not drawn) [ethyl β-[[5-[4-(aminoiminomethyl)phenyl]-1-oxopentyl]amino]benzenepentanoate], in test [1] (dose 30 mg/Kg), the inhibition in vivo at 30 mg/kg is 0%.

In test [2], `N=C(N)c1ccc(CCCCC(=O)NC(CC(=O)O)c2ccccc2)cc1` (stereo not drawn) [β-[[5-4-(aminoiminomethyl)phenyl]-1-oxopentyl]amino]benzenepropanoic acid, acetate salt] had an IC50 of 5.3 µM. For the same compound, in test [1] (dose 30 mg/Kg), the inhibition in vivo at 30 mg/kg turned out to be 34% and the Duration was under 2 h.

In test [2], `CCOC(=O)CC(C)NC(=O)CCCCc1ccc(C(=N)N)cc1` (centres unmarked) [Ethyl 3-[[5-[4-(aminoiminomethyl)phenyl]-1-oxopentyl]amino]butanoate] showed an IC50 of 5 µM. Moreover, in test [1] (dose 10 mg/Kg), the inhibition in vivo at 10 mg/kg stood at 90%. Besides, in test [1] (dose 30 mg/Kg), the inhibition in vivo at 30 mg/kg amounted to 100% and the Duration was over 24 h.

In turn, `N=C(N)c1ccc(CCCCC(=O)NC(CC(=O)OC2CCCCC2)c2cccnc2)cc1` (stereo not drawn) [cyclohexyl β-[[5-[4-(aminoiminomethyl)phenyl]-1-oxopentyl]amino]-3-pyridinepropanoate] gave an IC50 in test [2] of 2.3 µM. Also, in test [1] (dose 10 mg/Kg), the inhibition in vivo at 10 mg/kg turned out to be 87% and the Duration amounted to 3 h.

For `CCOC(=O)CC(NC(=O)CCCCc1ccc(C(=N)N)cc1)c1ccc(OCC)cc1` (stereo not drawn) [ethyl β-[[5-[4-(aminoiminomethyl)phenyl]-1-oxopentyl]amino]-4-ethoxybenzenepropanoate], in test [1] (dose 20 mg/Kg), the inhibition in vivo at 20 mg/kg worked out at 0% and the Duration amounted to 0 h.

Turning to `CCOC(=O)CC(NC(=O)CCCCc1ccc(C(=N)N)cc1)c1ccccc1` (stereo not drawn) [Ethyl β-[[5-[4-(aminoiminomethyl)phenyl]-1-oxopentyl]amino]benzenepropanoate], 5.3 µM corresponded to half-maximal inhibition in test [2] (IC50). Further, the inhibition in vivo at 10 mg/kg in test [1] (dose 10 mg/Kg) worked out at 83%. In test [1] (dose 30 mg/Kg), the inhibition in vivo at 30 mg/kg worked out at 100% and the Duration is over 24 h.

`CC(CC(=O)O)NC(=O)CCCCc1ccc(C(=N)N)cc1` (centres unmarked) [3-[[5-[4-(Aminoiminomethyl)phenyl]-1-oxopentyl]amino]butanoic acid] yielded an IC50 in test [2] of 1.2 µM. Further, in test [1] (dose 10 mg/Kg), the inhibition in vivo at 10 mg/kg is 80% and the Duration came out at 5 h.

For `COc1ccc(C(CC(=O)O)NC(=O)CCCCc2ccc(C(=N)N)cc2)cc1OC` (stereo not drawn) [β-[[5-[4-(aminoiminomethyl)phenyl]-1-oxopentyl]amino]-3,4-dimethoxybenzenepropanoic acid], in test [2], the IC50 came to 0.53 µM.

In the case of `C=CC(CC(=O)O)NC(=O)CCCCc1ccc(C(=N)N)cc1` (centres unmarked) [3-[[5-[4-(aminoiminomethyl)phenyl]-1-oxopentyl]amino]-4-pentenoic acid], the IC50 in test [2] is 9.2 µM.

`CCOc1ccc(C(CC(=O)O)NC(=O)CCCCc2ccc(C(=N)N)cc2)cc1` (stereo not drawn) [β-[[5-[4-(aminoiminomethyl)phenyl]-1-oxopentyl]amino]-4-ethoxybenzenepropanoic acid] showed an IC50 in test [2] of 0.4 µM.

In test [2], `N=C(N)c1ccc(CCCCC(=O)NC(CC(=O)O)c2cccc(F)c2)cc1` (stereo not drawn) [β-[[5-[4-(aminoiminomethyl)phenyl]-1-oxopentyl]amino]-3-fluorobenzenepropanoic acid] yielded an IC50 of 1.3 µM.

The compound `N=C(N)c1ccc(CCCCC(=O)NC(CC(=O)O)c2ccccc2F)cc1` (stereo not drawn) [β-[[5-[4-(aminoiminomethyl)phenyl]-1-oxopentyl]amino]-2-fluorobenzenepropanoic acid] had an IC50 in test [2] of 5.2 µM.
